Measurements as given in PubChem BioAssay (NCI).
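Interpolation was linear, between the two tested concentrations surrounding the appropriate level; five concentrations were tested over 48 hours in 96-well plates. Abbreviation: GI50, concentration required for 50% inhibition of growth. Definition used: TGI = concentration required for complete inhibition of growth.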

What was measured:
Assay in all cases: inhibition of tumour cell growth, NCI panel, 48 h
LOX IMVI melanoma = test system: LOX IMVI melanoma
M14 melanoma = test system: M14 melanoma
MOLT-4 leukemia = test system: MOLT-4 leukemia
NCI-H522 lung = test system: NCI-H522 lung
PC-3 prostate = test system: PC-3 prostate
RPMI-8226 leukemia = test system: RPMI-8226 leukemia
SN12C renal = test system: SN12C renal
SNB-19 CNS = test system: SNB-19 CNS
SNB-75 CNS = test system: SNB-75 CNS
UACC-257 melanoma = test system: UACC-257 melanoma

SMILES	GI50 (LOX IMVI melanoma) [µM]	TGI (LOX IMVI melanoma) [µM]	GI50 (M14 melanoma) [µM]	TGI (M14 melanoma) [µM]	GI50 (MOLT-4 leukemia) [µM]	TGI (MOLT-4 leukemia) [µM]	GI50 (NCI-H522 lung) [µM]	TGI (NCI-H522 lung) [µM]	GI50 (PC-3 prostate) [µM]	TGI (PC-3 prostate) [µM]	GI50 (RPMI-8226 leukemia) [µM]	TGI (RPMI-8226 leukemia) [µM]	GI50 (SN12C renal) [µM]	TGI (SN12C renal) [µM]	GI50 (SNB-19 CNS) [µM]	TGI (SNB-19 CNS) [µM]	GI50 (SNB-75 CNS) [µM]	TGI (SNB-75 CNS) [µM]	GI50 (UACC-257 melanoma) [µM]	TGI (UACC-257 melanoma) [µM]
Cc1cc(C)c(C(=O)CC(=O)c2cccnc2)c(C)c1	4.84	> 100	5.31	33.9	4.41	38.4	13.4	> 100	8.73	> 100	5.31	> 100	9.35	> 100	6.34	> 100	26.6	> 100	27.2	> 100
Cc1ccc(C(=NN=C(N)N)c2ccc(C)cc2)cc1	0.587	3.38	0.415	2.15	0.52	4.45	0.335	1.19	0.457	10.5	1.07	4.87	1.07	11.6	2.23	18.4	0.845	16.7	0.498	2.07
O=C(Nc1ccc(Cl)cc1)c1cc(-c2ccc(F)cc2)c2sc(=O)[nH]c2n1	1.68	4.43	1.88	5.13	0.721	4.02	0.478	5.42	0.65	13.3	0.391	2.22	1.99	7.93	2.73	16.2	2.02	5.33	1.11	5.07
COc1ccc(C(=O)c2cc(C)c(OC)c(C)c2)c(OC)c1N(C(=O)C(Cl)Cl)C(=O)C(Cl)Cl	0.159	> 100	0.0338	> 100	0.122	> 100	0.0322	–	0.0436	> 100	0.0794	20.8	0.0727	> 100	0.0492	> 100	0.0283	> 100	> 69.4	> 100
CC(C)c1ccc(C(=O)Nc2sc3c(c2C(N)=O)CCC(=O)C3)cc1	0.373	1.71	0.522	2.44	0.461	3.17	0.316	1.56	0.242	1.31	0.127	0.691	0.515	2.35	0.472	6.02	0.795	2.65	2.05	5.04
CC(=O)OC1CC(O)C23COC(O)C1(C)C2CC(O)C1(C)C3C(=O)C(O)C2(C)C(c3ccoc3)CC3OC321 (stereo unspecified)	< 0.01	12.5	0.0793	> 59.8	< 0.01	0.0127	0.401	> 100	0.0114	> 100	< 0.01	0.0237	> 100	> 100	> 100	> 100	< 0.0397	> 100	0.16	5.51
CCC#CC[C@H]1C/C=C2/C(=O)C=C[C@@H]2C/C=C\CCCC(=O)O1	0.698	1.5	1.48	8.61	1.24	3.96	0.663	1.83	1.35	6.05	0.267	1.86	0.954	2.78	1.48	7.02	4.38	10.8	–	–
CC12CCCC(O)C1CCC1=CC3(CCC12)SCCS3 (stereo unspecified)	–	> 10	–	> 10	–	–	–	> 10	–	> 10	–	> 10	–	> 10	–	> 10	–	> 10	–	> 10
COC(=O)Nc1nc2ccc(Oc3ccc(NC(=O)Nc4ccccc4)cc3)cc2[nH]1	0.178	> 9.6	0.168	2.6	0.184	> 10.3	0.0686	0.667	0.15	> 9.6	0.748	> 10	0.452	> 10.9	0.183	> 17	0.115	7.15	0.167	> 14.8
O=C(N/N=C/c1cccc(O)c1O)c1ccccc1	0.511	> 100	0.695	11.5	0.362	> 39.2	0.323	2.25	0.725	> 100	1.3	> 100	0.73	> 100	1.46	> 100	4.66	85.6	0.895	7.05
COc1ccc(C(=O)COc2cccc(/C=C3\COc4ccc5ccccc5c4C3=O)c2)cc1	5.41	> 100	67.8	> 100	2.86	18.9	8.13	> 100	3.5	> 100	1.15	3.94	4.46	> 100	9.37	> 100	2.39	11.6	39.7	> 100
CCc1[nH]c(=O)nc(N)c1-c1ccc(N2CCCCC2)c([N+](=O)[O-])c1	–	> 100	–	> 100	–	> 100	–	> 100	–	> 100	–	> 100	–	> 100	–	> 100	–	> 100	–	> 100
NC(=S)N/N=C/c1ccc(OC(=O)COc2ccc(Cl)cc2)cn1	3.18	> 100	3.51	15.6	2.26	> 100	0.718	40	4.67	> 100	7.31	> 100	4.53	> 100	20.9	> 100	–	> 100	17.9	72.1
COc1cc(C2=NN(C(C)=O)C(c3ccc(OC(C)=O)cc3OC(C)=O)O2)c(OC(C)=O)c2ccccc12 (stereo unspecified)	0.374	11.7	0.582	7.15	0.44	8.5	1.19	11	0.753	35.4	2.74	14.7	0.864	> 43.8	1.19	> 75.3	2.28	29.6	0.981	6.86
CC(=O)OC1Oc2ccccc2-c2oc(=O)c(-c3cc4ccc(N(C)C)cc4oc3=O)cc21 (stereo unspecified)	10.4	23	17.9	66.1	2.53	18.1	11.9	30.6	10.5	32.6	0.392	15	19.9	69.6	13.1	36	9.9	25.4	10.2	43.3
COc1ccc(C(C)c2cc3c(cc2OC)OCO3)cc1 (stereo unspecified)	–	27.3	–	24.5	–	> 60.6	–	0.438	–	> 100	–	> 48.6	–	43.5	–	> 100	–	> 100	–	> 75.5
NC(N)=NCCCn1c2c(c3ccccc3c1=O)C(=O)c1ccccc1-2	14.4	28.8	18.7	34.5	2.65	18.8	2.45	11.1	52.1	> 100	42.7	> 100	0.229	0.572	18.5	98.2	5.69	26.4	–	–
Cc1cc(SCC(=O)c2ccccc2)nc2ccccc12	–	> 100	–	> 100	–	> 100	–	> 100	–	> 100	–	> 100	–	> 100	–	> 100	–	> 100	–	> 100
O=C(c1cccc(O)c1O)c1cn(Cc2ccc(F)cc2)c2cccc(O)c12	2.58	16.1	3.43	13.4	0.84	10.3	1.38	8.08	6.92	26.7	0.564	6.99	6.37	21.7	3.97	17	2.49	12	4.44	14.3
CCN(CC)c1ccc(C(=N)c2ccc(N(CC)CC)cc2)cc1	0.598	2.02	0.524	1.83	0.594	4.36	0.193	0.765	0.492	4.76	0.358	2.42	1.34	5.82	0.917	8.09	0.849	6.89	0.744	2.25
COc1cc2oc(-c3ccc(O)cc3)cc(=O)c2c(OC)c1OC	–	> 100	–	> 100	–	> 100	–	> 100	–	> 100	–	> 100	–	> 100	–	> 100	–	> 100	–	> 100
CN(C)c1ccc(N)cc1	3.94	14.7	4.66	16.3	–	–	1.94	7.84	3.53	21.8	2.71	9.1	4.35	33.9	4.35	> 100	3.79	17.3	2.69	7.28
CCOC(=O)c1c(CN2CCN(c3ccccc3)CC2)n(-c2ccccc2)c2cc(Br)c(O)cc12	3.1	11.1	15	41.6	3.56	29.5	16.1	44.5	3.21	13.3	3.61	> 100	5.68	18.5	21	53.5	17.7	90.5	18.2	50.9
CC/C=C\C[C@@H]1C/C=C2/C(=O)C=C[C@H]2C/C=C\CCCC(=O)O1	0.145	0.323	0.237	1.03	0.551	2.71	0.231	0.737	0.535	2.39	0.331	1.33	0.545	4.01	1.25	3.36	1.18	2.6	1.37	3.39
CN(C)CCCn1c2c(c3ccccc3c1=O)C(=O)c1ccccc1-2	0.937	3.19	3.66	17.1	0.276	0.746	3.62	> 100	2.27	13.7	1.4	5.79	0.907	3.07	2.2	21.9	14.2	33.1	–	–
CCCCN=C(N)c1ccc(OCCSCCOc2ccc(C(N)=NCCCC)cc2)cc1	9.46	> 100	28.4	> 100	20.9	> 100	2.25	12.8	4.4	98.6	2.71	53.4	1.76	> 100	–	–	1.09	16.2	4.4	71.8
O=C1c2ccccc2-c2c1c1ccccc1c(=O)n2Cc1ccccc1	–	> 100	–	> 100	–	> 100	–	> 100	–	> 100	–	> 100	–	> 100	–	–	–	> 100	–	> 100
